What was measured:
[1] = cited from earlier work
[2] = system: subjects with chronic pruritus and prurigo nodularis; assay: Phase II randomized, double-blind, placebo-controlled clinical study of serlopitant in chronic pruritus due to prurigo nodularis; type: in vivo, human; conditions: for Mean difference Serlopitant − Placebo (SE) in change of average itch VAS score from baseline by repeated measures analysis: 5 mg once daily oral, 10 cm VAS
Method: A well-controlled human clinical trial assessing the efficacy of serlopitant in the treatment of pruritus associated with prurigo nodularis (PN) was approved by an Institutional Review Board and was conducted in accordance with the ICH Guidelines for Good Clinical Practices. German regulations on recordkeeping of subject information, and any local regulatory requirements. The study was a Phase II randomized, double-blind, placebo-controlled, multicenter trial designed to evaluate the efficacy and safety of serlopitant versus placebo in subjects with PN. […] The subjects had chronic pruritus due to PN.
Subjects were randomized to receive either a 5-mg tablet of serlopitant or a matching placebo tablet. Subjects took a tablet of serlopitant or placebo once daily by mouth for 8 weeks following a loading dose of 3 tablets on the first day of treatment. The maximum study duration for each subject was about 14 weeks and included a screening period of up to 4 weeks, a treatment period of 8 weeks, and a follow-up period of 2 weeks.
At Baseline, the average itch VAS score (average itch over the past 24 hours) for the serlopitant group and the placebo group was 7.88 and 7.92, respectively. […] Furthermore, a once-daily 5 mg dose of serlopitant led to a 4-point responder rate (the proportion of subjects achieving ≥4-point improvement on a 10-point scale) of 54% with respect to the average itch VAS score at Week 8 compared to 25% for placebo.

[3] = In vitro skin permeation of serlopitant in topical formulations, Franz diffusion cell; type: in vitro ADME; conditions: topical formulations B and C, human skin, 37° C., LC-MS/MS
Method: In vitro skin permeation of serlopitant in topical formulations A-D was evaluated using a Franz diffusion cell. FIG. 1 illustrates a Franz diffusion cell. A Franz diffusion cell having a circular permeation area of 4.15 cm^2 and a receptor chamber volume of 19 mL was set up with a thermo-regulated outer water jacket to maintain the temperature at 37° C. The receptor chamber was filled with 19 mL 1×PBS (pH 7.5) containing 10% ethanol and 1% Tween® 80.
Human skin was pre-treated to remove all subcutaneous fat and was cleaned with 70% ethanol before use. The skin was visually inspected to ensure that it was free of any surface irregularity or small holes and was equally divided into four pieces. The skin was then mounted onto the receptor chamber with the stratum corneum side facing up. […]
All samples were processed by solid-phase extraction (SPE) before LC-MS/MS analysis. […] Serlopitant concentrations in samples resulting from formulations A-D were determined by comparison to the standard. Serlopitant was not detected in samples resulting from topical formulations A and D, as expected. […] After an initial lag, serlopitant was detected by LC-MS/MS in the receptor chamber at 6 hours.
The amount of serlopitant retained in the skin was determined at the end of the experiment. […] Extracted serlopitant was quantified by LC-MS/MS. […]

[4] = Solubility test of serlopitant in Franz cell receptor solution; type: physicochemical
[5] = system: subjects with chronic pruritus; assay: Phase II randomized, double-blind, placebo-controlled clinical study of serlopitant in chronic pruritus; type: in vivo, human; conditions: for 4-point responder rate (proportion of subjects achieving ≥4-point improvement on a 10-point scale) in the average VAS itch score: Week 6, placebo 26%; for relief of itch in the NRS score compared to placebo (secondary efficacy endpoint; data not shown) / relief of itch in the VAS score compared to placebo (primary efficacy endpoint): Weeks 4, 5 and 6
Method: A well-controlled human clinical trial assessing the efficacy of serlopitant in the treatment of chronic pruritus was approved by an Institutional Review Board and was conducted in accordance with the International Conference on Harmonisation (ICH) Guidelines for Good Clinical Practices, the U.S. Code of Federal Regulations, the Health Insurance Portability and Accountability Act (HIPAA), and any local regulatory requirements. The study was a Phase II randomized, double-blind, parallel-group, placebo-controlled, multicenter trial designed to evaluate the efficacy and safety of serlopitant versus placebo in subjects with chronic pruritus.
Subjects were randomized to receive a 0.25 mg, 1 mg or 5 mg tablet of serlopitant or a matching placebo tablet. Subjects took one tablet of serlopitant or placebo once daily by mouth for a total of 6 weeks following a loading dose of 3 tablets on the first day of treatment. The maximum study duration for each subject was about 12 weeks and included a screening period of up to 2 weeks, a treatment period of 6 weeks, and a follow-up period of 4 weeks. The screening period was extended up to 44 days if a washout period from any prohibited medications was required.

[6] = all three doses (0.25 mg, 1 mg, 5 mg once daily, 6 weeks)

## C[C@@H](O[C@H]1CC[C@@H]2CN(C3=CC(=O)CC3)C[C@H]2[C@@H]1c1ccc(F)cc1)c1cc(C(F)(F)F)cc(C(F)(F)F)c1 [Form I]
[1]; Form I compared with Form II
  thermodynamic stability of polymorph: thermodynamically more stable below 70 °C
[1]; all tested relative humidity conditions
  hygroscopicity: non-hygroscopic

## C[C@@H](O[C@H]1CC[C@@H]2CN(C3=CC(=O)CC3)C[C@H]2[C@@H]1c1ccc(F)cc1)c1cc(C(F)(F)F)cc(C(F)(F)F)c1 [serlopitant, 3-[(3aR,4R,5S,7aS)-5-[(1R)-1-[3,5-bis(trifluoromethyl)phenyl]ethoxy]-4-(4-fluorophenyl)octahydro-2H-isoindol-2-yl]cyclopent-2-en-1-one]
[2]; Week 2, 95% CI (−1.5, −0.2), p 0.0111
  Mean difference Serlopitant − Placebo (SE) in change of average itch VAS score from baseline by repeated measures analysis: −0.9 (0.34)
[2]; Week 4, 95% CI (−1.8, −0.1), p 0.0248
  Mean difference Serlopitant − Placebo (SE) in change of average itch VAS score from baseline by repeated measures analysis: −1.0 (0.43)
[2]; Week 8, 95% CI (−2.6, −0.7), p 0.0005
  Mean difference Serlopitant − Placebo (SE) in change of average itch VAS score from baseline by repeated measures analysis: −1.7 (0.47)
[2]; 5 mg once daily, 8 weeks
  adverse event diarrhea (most common adverse events): 11%
  adverse event nasopharyngitis (most common adverse events): 17%
  intensity of treatment-emergent adverse events: generally mild or moderate
  tolerability and safety: well tolerated and safe
[2]; once-daily 5 mg dose
  improvement in pruritus on the IGA vs placebo: greater improvement
[2]; once-daily 5 mg dose, Week 8, placebo 25%
  4-point responder rate with respect to the average itch VAS score: 54%
[2]; once-daily 5 mg dose, Week 8, placebo 26%
  4-point responder rate with respect to the worst itch NRS score: 47%
[2]; once-daily 5 mg dose, Week 8, placebo 28.9%
  proportion of subjects reporting “no/mild pruritus” on the VRS: 54.4%
[2]; once-daily 5 mg dose, Week 8, placebo 54.3%
  proportion of subjects reporting improvement in pruritus on the PGA: 82.5%
[2]; once-daily 5 mg dose, Weeks 2, 4, and 8
  decrease in the average itch VAS score from Baseline compared to placebo: statistically significant decrease
[2]; once-daily 5 mg dose, p=0.0024
  improvement in the worst itch VAS score from Baseline to Week 8 vs placebo: statistically significantly, greater improvement
[2]; once-daily 5 mg dose, p=0.0069
  decrease in the average itch NRS score from Baseline to Week 8 vs placebo: statistically significantly greater decrease
[3]
  time at which serlopitant was detected in the receptor chamber after an initial lag: 6 h
[4]; 1×PBS (pH 7.5) containing 10% ethanol and 1% Tween 80, 1 hour of incubation at 37° C.
  solubility in receptor solution: remained soluble at concentrations of 0.5, 5 and 50 ug/mL
[4]; receptor solution without Tween 80
  change of solubility if Tween 80 was not used: decreased significantly
[4]; receptor solution without ethanol
  change of solubility if ethanol was not used: decreased slightly
[5]; 0.25 mg once daily oral, Week 1, n = 64
  Least squares mean % change from baseline in average VAS itch score: −9.1 ± 3.9%
[5]; 0.25 mg once daily oral, Week 2, n = 64
  Least squares mean % change from baseline in average VAS itch score: −14.9 ± 4.0%
[5]; 0.25 mg once daily oral, Week 3, n = 64
  Least squares mean % change from baseline in average VAS itch score: −21.4 ± 4.0%
[5]; 0.25 mg once daily oral, Week 4, n = 64
  Least squares mean % change from baseline in average VAS itch score: −29.0 ± 4.0%
[5]; 0.25 mg once daily oral, Week 5, n = 64
  Least squares mean % change from baseline in average VAS itch score: −32.4 ± 4.0%
[5]; 0.25 mg once daily oral, Week 6, n = 64
  Least squares mean % change from baseline in average VAS itch score: −34.1 ± 4.1%
[5]; 1 mg once daily oral, Week 1, n = 65
  Least squares mean % change from baseline in average VAS itch score: −11.8 ± 3.9%
[5]; 1 mg once daily oral, Week 2, n = 65
  Least squares mean % change from baseline in average VAS itch score: −22.0 ± 4.0%
[5]; 1 mg once daily oral, Week 3, n = 65
  Least squares mean % change from baseline in average VAS itch score: −30.2 ± 4.0%
[5]; 1 mg once daily oral, Week 4, n = 65, p < 0.05 vs placebo
  Least squares mean % change from baseline in average VAS itch score: −33.1 ± 4.0 %
[5]; 1 mg once daily oral, Week 5, n = 65, p < 0.05 vs placebo
  Least squares mean % change from baseline in average VAS itch score: −38.0 ± 4.1 %
[5]; 1 mg once daily oral, Week 6, n = 65, p < 0.05 vs placebo
  Least squares mean % change from baseline in average VAS itch score: −41.4 ± 4.0 %
[5]; 5 mg once daily oral, Week 1, n = 64
  Least squares mean % change from baseline in average VAS itch score: −12.0 ± 3.9%
[5]; 5 mg once daily oral, Week 2, n = 64
  Least squares mean % change from baseline in average VAS itch score: −20.3 ± 4.0%
[5]; 5 mg once daily oral, Week 3, n = 64
  Least squares mean % change from baseline in average VAS itch score: −28.8 ± 4.0%
[5]; 5 mg once daily oral, Week 4, n = 64, p < 0.05 vs placebo
  Least squares mean % change from baseline in average VAS itch score: −34.2 ± 4.0 %
[5]; 5 mg once daily oral, Week 5, n = 64, p < 0.05 vs placebo
  Least squares mean % change from baseline in average VAS itch score: −37.3 ± 4.0 %
[5]; 5 mg once daily oral, Week 6, n = 64, p < 0.05 vs placebo
  Least squares mean % change from baseline in average VAS itch score: −42.5 ± 4.1 %
[5]; [6]
  intensity of all adverse events: mild or moderate intensity
  most common treatment-emergent adverse events: diarrhea, somnolence and headache in the low single-digit percent
  tolerability and safety profile: well tolerated and exhibited an excellent safety profile
[5]; once-daily 1 mg dose
  4-point responder rate (proportion of subjects achieving ≥4-point improvement on a 10-point scale) in the average VAS itch score: 42%
  relief of itch in the NRS score compared to placebo (secondary efficacy endpoint; data not shown): statistically significant improvement in relief of itch
  relief of itch in the VAS score compared to placebo (primary efficacy endpoint): statistically significant improvement in relief of itch
[5]; once-daily 5 mg dose
  4-point responder rate (proportion of subjects achieving ≥4-point improvement on a 10-point scale) in the average VAS itch score: 53%
  relief of itch in the NRS score compared to placebo (secondary efficacy endpoint; data not shown): statistically significant improvement in relief of itch
  relief of itch in the VAS score compared to placebo (primary efficacy endpoint): statistically significant improvement in relief of itch
